Biological target: T1, HSP90α (Homo sapiens, UniProt P07900)
T1 construct: gene HSP90AA1; Recombinant human HSP90 alpha protein (ab80369)
Experiment: SPR (Biacore T200, […] binding model); supported by CETSA for HSP90 in MDA-MB-231 cells

In the case of `C/C=C1/CC[C@H]2[C@@H]3CCC4C[C@@H](NCC)CC[C@]4(C)[C@H]3CC[C@]12C` (stereo partly drawn) [compound 1, (Z)-3β-ethylamino-pregn-17(20)-en], the Kd is reported as 21 µM.
